Laboratory results: patent US10800725B2, “Arylpropionyl-triketone antibacterial agents” (priority 2010, dated 2020)
≈ marks a conversion by molar mass, not a printed value.

What was measured:
[1] = test system: Escherichia coli D21f2tolC; test: MIC, spiral gradient endpoint assay; details: read-out: MIC E. coli D21f2tolC
[2] = biological target: S. aureus RNA polymerase core enzyme + σA (Staphylococcus aureus (strain NCTC 8325 / PS 47), UniProt P47768+Q2G0N5); test: Fluorescence-detected RNA polymerase assay, S. aureus RNAP; assay type: biochemical
Description: (§1) Fluorescence-detected RNA polymerase assays with E. coli RNA polymerase were performed by a modification of the procedure of Kuhlman et al., 2004 [Kuhlman, P., Duff, H. & Galant, A. (2004) A fluorescence-based assay for multisubunit DNA-dependent RNA polymerases. Anal. Biochem. 324, 183-190]. Reaction mixtures contained (20 μl): 0-100 nM test compound, 75 nM E. coli RNA polymerase σ^70 holoenzyme, 20 nM 384 bp DNA fragment containing the bacteriophage T4 N25 promoter, 100 μM ATP, 100 μM GTP, 100 μM UTP, 100 μM CTP, 50 mM Tris-HCl, pH 8.0, 100 mM KCl, 10 mM MgCl2, 1 mM DTT, 10 μg/ml bovine serum albumin, and 5.5% glycerol. Reaction components other than DNA and NTPs were pre-incubated for 10 min at 37° C. Reactions were carried out by addition of DNA and incubation for 5 min at 37° C., followed by addition of NTPs and incubation for 60 min at 37° C. DNA was removed by addition of 1 μl 5 mM CaCl2 and 2 U DNaseI (Ambion, Inc.), followed by incubation for 90 min at 37° C. RNA was quantified by addition of 100 μl RiboGreen RNA Quantitation Reagent (Invitrogen, Inc.; 1:500 dilution in Tris-HCl, pH 8.0, 1 mM EDTA), followed by incubation for 10 min at 25° C., followed by measurement of fluorescence intensity [excitation wavelength=485 nm and emission wavelength=535 nm; QuantaMaster QM1 spectrofluorometer (PTI, Inc.)]. IC50 is defined as the concentration of inhibitor resulting in 50% inhibition of RNA polymerase activity.
(§2) Fluorescence-detected RNA polymerase assays with S. aureus RNA polymerase were performed as in Example 21.1, using reaction mixtures containing (20 μl): 0-100 nM test compound, 75 nM S. aureus RNA polymerase core enzyme, 300 nM S. aureus σ^A, 20 nM 384 bp DNA fragment containing the bacteriophage T4 N25 promoter, 100 μM ATP, 100 μM GTP, 100 μM UTP, 100 μM CTP, 40 mM Tris-HCl, pH 8.0, 80 mM NaCl, 5 mM MgCl2, 2.5 mM DTT, and 12.7% glycerol. IC50 is defined as the concentration of inhibitor resulting in 50% inhibition of RNA polymerase activity.

[3] = test system: Staphylococcus aureus ATCC 12600; test: MIC, spiral gradient endpoint assay; details: ATCC12600, read-out: MIC S. aureus 12600
[4] = test system: Mycobacterium tuberculosis H37Rv; test: MIC, microplate Alamar Blue assay; details: read-out: MIC M. tuberculosis H37Rv
[5] = biological target: M. tuberculosis RNA polymerase core enzyme + σA (Mycobacterium tuberculosis (strain ATCC 25618 / H37Rv), UniProt P9WGY7+P9WGY9); test: Fluorescence-detected RNA polymerase assay, M. tuberculosis RNAP; assay type: biochemical
Description: as §1
as §2, with “M. tuberculosis” for “S. aureus”

[6] = biological target: E. coli RNA polymerase σ70 holoenzyme (Escherichia coli (strain K12), UniProt P0A8T7+P0A8V2); test: Fluorescence-detected RNA polymerase assay, E. coli RNAP; assay type: biochemical
Description: as §1

[7] = test system: Enterococcus faecalis ATCC 19433; test: MIC, spiral gradient endpoint assay; details: ATCC19433, read-out: MIC E. faecalis 19433

| SMILES | MIC [1] | IC50 [2] | MIC [3] | MIC [4] | IC50 [5] | IC50 [6] | MIC [7] |
| --- | --- | --- | --- | --- | --- | --- | --- |
| Cc1ccccc1CCC(=O)C1=C(O)C(CCC(C)C)=C(O)C(CCC(C)C)(CCC(C)C)C1=O [Compound 7, 3,5-dihydroxy-2-(3-(2-methylphenyl)propanoyl)-4,6,6-triisopentylcyclohexa-2,4-dienone] | 7 µg/mL (≈ 14.5 µM) | 1.1 µM | 0.5 µg/mL (≈ 1.04 µM) | 50 µg/mL (≈ 104 µM) | 0.17 µM | 0.21 µM | 1 µg/mL (≈ 2.07 µM) |
| Cc1cccc(CCC(=O)C2=C(O)C(CCC(C)C)=C(O)C(CCC(C)C)(CCC(C)C)C2=O)c1 [Compound 8, 3,5-dihydroxy-2-(3-(3-methylphenyl)propanoyl)-4,6,6-triisopentylcyclohexa-2,4-dienone] | 12 µg/mL (≈ 24.9 µM) | 2.2 µM | 4 µg/mL (≈ 8.29 µM) | > 50 µg/mL | 0.6 µM | 0.42 µM | 1 µg/mL (≈ 2.07 µM) |
| Cc1ccc(CCC(=O)C2=C(O)C(CCC(C)C)=C(O)C(CCC(C)C)(CCC(C)C)C2=O)cc1 [Compound 9, 3,5-dihydroxy-2-(3-(4-methylphenyl)propanoyl)-4,6,6-triisopentylcyclohexa-2,4-dienone] | 4.4 µg/mL (≈ 9.12 µM) | 0.84 µM | 0.5 µg/mL (≈ 1.04 µM) | 25 µg/mL (≈ 51.8 µM) | 0.29 µM | 0.22 µM | 1 µg/mL (≈ 2.07 µM) |
| CC(C)CCC1=C(O)C(CCC(C)C)(CCC(C)C)C(=O)C(C(=O)CCc2ccc(F)cc2)=C1O [Compound 10, 3,5-dihydroxy-2-(3-(4-fluorophenyl)propanoyl)-4,6,6-triisopentylcyclohexa-2,4-dienone] | 2.7 µg/mL (≈ 5.55 µM) | 2.2 µM | 0.5 µg/mL (≈ 1.03 µM) | 50 µg/mL (≈ 103 µM) | 0.64 µM | 0.53 µM | 2.7 µg/mL (≈ 5.55 µM) |
| CC(C)CCC1=C(O)C(CCC(C)C)(CCC(C)C)C(=O)C(C(=O)CCc2ccc(Br)cc2)=C1O [Compound 11, 3,5-dihydroxy-2-(3-(4-bromophenyl)propanoyl)-4,6,6-triisopentylcyclohexa-2,4-dienone] | 3.3 µg/mL (≈ 6.03 µM) | 3.3 µM | 0.8 µg/mL (≈ 1.46 µM) | 50 µg/mL (≈ 91.3 µM) | 0.78 µM | 0.89 µM | 2.6 µg/mL (≈ 4.75 µM) |
| CC(C)CCC1=C(O)C(CCC(C)C)(CCC(C)C)C(=O)C(C(=O)CCc2ccc(C(F)(F)F)cc2)=C1O [Compound 12, 3,5-dihydroxy-2-(3-(4-trifluoromethylphenyl)propanoyl)-4,6,6-triisopentylcyclohexa-2,4-dienone] | 4.3 µg/mL (≈ 8.01 µM) | 0.46 µM | 0.6 µg/mL (≈ 1.12 µM) | 25 µg/mL (≈ 46.6 µM) | 0.22 µM | 0.12 µM | 0.5 µg/mL (≈ 0.932 µM) |
| CCCC1=C(O)C(CCC)(CCC)C(=O)C(C(=O)CCc2ccc(Cl)cc2)=C1O [Compound 13, 3,5-dihydroxy-2-(3-(4-chlorophenyl)propanoyl)-4,6,6-tripropylcyclohexa-2,4-dienone] | 0.8 µg/mL (≈ 1.91 µM) | 5.3 µM | 0.7 µg/mL (≈ 1.67 µM) | > 50 µg/mL | 1.4 µM | 7.8 µM | 2.2 µg/mL (≈ 5.25 µM) |
| CCCCC1=C(O)C(CCCC)(CCCC)C(=O)C(C(=O)CCc2ccc(Cl)cc2)=C1O [Compound 14, 3,5-dihydroxy-2-(3-(4-chlorophenyl)propanoyl)-4,6,6-tributylcyclohexa-2,4-dienone] | 0.6 µg/mL (≈ 1.3 µM) | 3.1 µM | 0.5 µg/mL (≈ 1.08 µM) | > 50 µg/mL | 0.68 µM | 1.1 µM | 1.3 µg/mL (≈ 2.82 µM) |
